Test results from patent publication US20140322193A1, “Therapies for Disorders of the Cornea and Conjunctiva” (priority 2011, published 2014).
Entries after “also recorded” stand apart in the source; their conditions may differ.

Tests used:
CBA/J mice = assay: Mouse BTX-B dry eye model, corneal fluorescein staining (corneal ulceration); type: in vivo; conditions: for Corneal fluorescein staining, MEAN, DAY 7: 7 days after BTX-B injection; for Corneal fluorescein staining, MEAN, DAY 7 / Corneal fluorescein staining, MEAN, DAY 14: eye drops twice daily in Refresh Celluvisc (A-438079 20 μM, BBG 20 μM, oxATP 300 μM), grade 0 to 4 scale; for Corneal fluorescein staining, MEAN, DAY 14: 14 days after BTX-B injection; for Corneal fluorescein staining, MEAN, DAY 0: day 0, prior to BTX-B injection (baseline), grade on 0 to 4 scale of Table 2; for Effect on corneal fluorescein staining (in words): days 7 and 14, chosen dose, b.i.d. eye drops
mouse P2X7 receptor = molecular target: T1, mouse P2X7 receptor (Mus musculus, UniProt Q9Z1M0); conditions: British Journal of Pharmacology 2009 157:1203; cited from earlier work
T1 sequence (Q9Z1M0 1-595): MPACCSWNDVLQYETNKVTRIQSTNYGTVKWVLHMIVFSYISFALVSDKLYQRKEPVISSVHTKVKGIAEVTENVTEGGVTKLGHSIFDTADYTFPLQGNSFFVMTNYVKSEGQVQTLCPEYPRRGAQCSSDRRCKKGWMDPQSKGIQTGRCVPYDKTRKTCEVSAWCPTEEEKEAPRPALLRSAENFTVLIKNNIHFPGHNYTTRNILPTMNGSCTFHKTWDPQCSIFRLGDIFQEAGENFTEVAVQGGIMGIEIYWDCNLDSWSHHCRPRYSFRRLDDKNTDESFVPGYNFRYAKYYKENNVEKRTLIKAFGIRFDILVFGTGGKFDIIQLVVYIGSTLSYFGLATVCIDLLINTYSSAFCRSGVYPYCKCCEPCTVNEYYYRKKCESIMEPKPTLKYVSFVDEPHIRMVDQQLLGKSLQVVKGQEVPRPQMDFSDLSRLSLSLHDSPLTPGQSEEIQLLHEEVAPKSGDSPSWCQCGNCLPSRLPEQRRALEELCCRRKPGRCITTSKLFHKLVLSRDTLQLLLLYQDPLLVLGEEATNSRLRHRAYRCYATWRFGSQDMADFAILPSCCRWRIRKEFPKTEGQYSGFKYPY

[1] = Preservation of 1 μM BBG ophthalmic composition in containers at 60° C. for 2 days; type: physicochemical; conditions: 1 μM BBG in BSS, PET, polypropylene, polyethylene and glass containers
Description: BSS Sterile Irrigating Solution is obtained from Alcon Laboratories, Ft. Worth, Tex. BBG is obtained from Sigma Aldrich, St. Louis, Mo. With moderate stirring in a homomixer, 856 mg of BBG is added to 1 liter of BSS at room temperature. The mixture is then stirred until the BBG is completely in solution. This solution is a 1 mM stock solution. One ml of the stock solution is then added to one liter of BSS to yield the ophthalmic composition, which is 1 μM BBG in BSS. The ophthalmic composition is filtered through a membrane filter (0.45 μm pore diameter, Millipore), filled in a 15 mL polyethylene terephthalate eye drop container, a polypropylene container, a polyethylene container, and a glass container and preserved at 60° C. for 2 days. The amount of BBG from each container is measured before and after preservation.

SMILES | Corneal fluorescein staining, MEAN, DAY 7 (CBA/J mice) | Corneal fluorescein staining, MEAN, DAY 14 (CBA/J mice) | Corneal fluorescein staining, MEAN, DAY 0 (CBA/J mice) | Effect on corneal fluorescein staining (in words) (CBA/J mice) | IC50 (mouse P2X7 receptor) | Degradation of active ingredient after preservation [1]
Clc1cccc(-c2nnnn2Cc2cccnc2)c1Cl [A-438079] | 1.70 | 2.70 | 0.00 | did not attenuate fluorescein staining | – | –
COc1ccc(CC(=O)NC(N=C(NC#N)Nc2cccc3ncccc23)C(C)(C)C)cc1OC (centres unmarked) [A-740003] | – | – | – | – | ~1000 nM | –
CCOc1ccc(Nc2ccc(/C(=C3C=C/C(=[N+](/CC)Cc4cccc(S(=O)(=O)[O-])c4)C=C/3C)c3ccc(N(CC)Cc4cccc(S(=O)(=O)[O-])c4)cc3C)cc2)cc1.[Na+] [BBG, Coomassie Brilliant Blue G] | 1.50 | 2.00 | 0.00 | did not attenuate fluorescein staining | – | little degradation
Nc1ncnc2c1ncn2[C@@H](C=O)O[C@@H](C=O)COP(=O)(O)OP(=O)(O)OP(=O)(O)O [oxATP, periodate oxidized ATP] | 0.00 | 0.00 | 0.00 | completely prevented the fluorescein staining; also recorded: remarkably effective in preventing pathology | – | –
